Columns and labels:
[1] = test system: GSH:GSSG; assay: GSH:GSSG ratio in blood lymphocytes of dogs fed dl-alpha-lipoic acid in extruded food; format: in vivo; conditions: chronic feeding in diet
From the text: Thirty (30) adult, random source, dogs were utilized for this study. Dogs were at least 10 months of age, not pregnant, not lactating and of reasonable body weight prior to start of test. Animals were randomized into 5 groups for dietary treatment with 3 males and 3 females per each group.
All dogs were fed a control food (0 ppm dl-alpha-lipoic acid added) that met or exceeded all recommendations for nutrients as proposed by the American Association of Feed Control Officials (AAFCO 2000) during a 2 week prefeeding period (Table 2). Following the prefeeding period dogs were randomized into 5 treatment groups with one of the following dl-alpha lipoic acid target-inclusions (dry matter basis): 0 ppm, 150 ppm, 1500 ppm, 3000 ppm, 4500 ppm. […]
Solvents and separation conditions were as described (Fariss, Jones). Levels of GSH and GSSG were quantified relative to authentic standards. […]
Comparison of values for clinical chemistry, hematology and body weights vs baseline were analyzed by way of paired t-test on SAS for windows with significance set at P<0.05. Means of values at each measured time point were separated by a one-way ANOVA with significance set at P<0.05. The difference in GSH:GSSG between day 84 and baseline were analyzed between groups by way of SAS for windows in a one-way ANOVA with significance set at P<0.05.

[2] = test system: cartilage markers (CPII, CTXII, COMP); assay: Serum cartilage (arthritic) markers by ELISA; format: in vivo, dogs; conditions: for Change CPII / Change CTXII / CPII: blood
Method: Serum cartilage markers were measured using ELISA based kits to determine concentrations of cartilage markers. Day 0 was used as a covariate in the analysis to adjust for baseline values.
Table 7 illustrates the change in blood level of arthritic markers in dogs after being fed a control diet compared with dogs fed a control plus fish oil and a control plus lipoic acid for 30 days and measured again at day 90.
Table 12 illustrates arthritic makers measured in blood samples for dogs after being fed a control diet compared with dogs fed a pet food including lipoic acid for 90 days.

[3] = test system: canine bone cells; assay: Genes related to cartilage metabolism altered in canine bone cells; format: in vivo, dogs; conditions: 90 days
From the text: Table 8 illustrates the directional change (up regulation or down regulation) in genes related to cartilage metabolism in dogs after being fed a control diet compared with dogs fed a control plus fish oil and a control plus lipoic acid for 90 days in canine bone cells.

[4] = test system: plasma metabolites; assay: Plasma metabolomics, fold change at day 30; format: in vivo, dogs
Method: Plasma metabolites were analyzed and were compared as fold change relative to the control fed dogs.
Table 5 illustrates the change in pyruvate blood levels in of dogs fed a control diet compared with dogs fed a control plus fish oil and a control plus lipoic acid.
Table 22 illustrates change in metabolite measured in blood samples for dogs after being fed a control diet compared with dogs fed a pet food including lipoic acid for 30 days.

[5] = test system: genes related to cartilage and energy metabolism; assay: Differential gene expression profile, whole blood RNA, canine 2 Affymetrix genechips; format: in vivo, dogs
From the text: Thirty (30) dogs were used to determine the effect of lipoic acid when compared to an AAFCO control food or a test food containing fish oil.
A differential gene expression profile was studied between an AAFCO control food, a food containing fish oil, and a food containing lipoic acid. At a minimum of 1.3 fold change, a list of 1212 genes was generated compared to the AAFCO control and 1896 genes compared to the food containing fish oil at d 30.
Total RNAs were isolated from whole blood samples using the PAXgene RNA isolation kit. All measurements were done with the canine 2 Affymetrix genechips. For statistical analysis, all measurements were normalized with RMA. All analysis was preformed using Partek. An ANOVA t-test was performed for genes that are differentially expressed between the control and test foods were selected based on p-value cutoff 0.1, fold change>+/−1.3.
Table 9 illustrates the change in genes related to cartilage metabolism and energy metabolism in dogs after being fed a control diet compared with dogs fed a control plus fish oil and a control plus lipoic acid for 90 days.

[6] = blood, day 30, day 0 as covariate
[7] = test food containing 150 ppm lipoic acid, fold change >+/-1.3, p cutoff 0.1

Structure (SMILES): O=C(O)CCCCC1CCSS1 (racemic) [Lipoic acid, dl-alpha-lipoic acid]
- reduced glutathione (GSH) to oxidized glutathione (GSSG) ratio, in words [1]: improves
- Change CPII ([2]; Day 30): −95.10
- Change CTXII ([2]; Day 30): −5.60
- CPII ([2]; Day 30, d 0 as covariate): 986.28 ng/mL
- Change CPII ([2]; Day 90): −232.70
- Change CTXII ([2]; Day 90): −0.59
- CPII ([2]; Day 90, d 0 as covariate): 848.0 ng/mL
- type II collagen C-propeptide and carboxy-terminal crosslinked telopeptide fragment of type II collagen, in words ([2]; compared with a similar food without lipoic acid): greater decrease
- MMP3 gene, directional change ([3]; probe 1582602_at): Down
- TIMP2 gene, directional change ([3]; probe 1582708_at): up
- Prolyl 4-hydroxylase gene, directional change ([3]; probe 1600479_at): up
- Fold change in pyruvate, Lipoic acid vs Control [4, 6]: 0.5379
- Fold change in pyruvate, Lipoic acid vs Fish oil [4, 6]: 0.6274
- metabolite hydroxyproline in plasma, in words ([4]; dogs fed a food containing lipoic acid): reduced
- Fold change Facilitated glucose transporter 6 ([5]; lipoic acid vs. control): 1.3
- Fold change chondroitan sulfate protcoglycan 2 (veriscan) ([5]; lipoic acid vs. control): 1.5
- Fold change N-acetylgalactosaminyl-transferase 1 ([5]; lipoic acid vs. fish oil): 1.3
- number of genes with altered expression vs AAFCO control food [5, 7]: 1212 genes
- number of genes with altered expression vs test food containing fish oil [5, 7]: 1896 genes

Source: patent US8669282B2, “Companion animal compositions including lipoic acid and methods of use thereof” (Hill's Pet Nutrition, Inc., priority 2000, dated 2014)
